# Reference: US20260048111A1, “Pharmaceutical Composition, Preparation Method and Use Thereof” (PuGong Biotech (Hangzhou) Co., Ltd., priority 2023, published 2026)
# Read-outs that look alike come from different tables or passages of the source.
# Legend:
# [1] = test system: LLC cells; format: in vivo, mouse; conditions: for Tumor Inhibition Rate: LLC
# Method: The LLC cells were cultured in DMEM medium containing […] high-quality fetal bovine serum, in a cell incubator with […] CO2 at 37° C.
# The LLC cells (tumor source) in the logarithmic growth phase were collected, and 0.1 mL of cell suspension (containing approximately 1×10^6 cells) was inoculated subcutaneously into the axillary region of the corresponding C57/BL/6 mice.
# (§1) On day 1 after tumor cell inoculation, all mice were randomly grouped before drug administration.
# (§2) Dosing was performed according to the design of the pharmacological study protocol.
# On day 7 and day 9 after tumor cell inoculation, the length (a) and width (b) of the tumor in each group of animals were measured externally. The tumor volume was estimated using the formula: V=0.52×a×b^2.
# On day 10 after tumor cell inoculation, the experiment was terminated, and tumors were excised and weighed from each group of animals.
# Statistical analysis and tumor inhibition rate calculation were performed as follows: Data were statistically analyzed using GraphPad Prism software. The tumor inhibition rate was calculated based on tumor size or tumor weight using the following formula: Tumor Inhibition Rate (%)=[(Average tumor volume or tumor weight of control group−Average tumor volume or tumor weight of treatment group)/Average tumor volume or tumor weight of control group]×[…].
# [2] = test system: Mouse Lewis lung carcinoma (LLC) cells; assay: Anti-tumor efficacy of PGc alone and with anti-mouse PD-1, LLC tumor in C57BL/6 mice (Example 6); format: in vivo
# Method: The LLC cells were cultured in DMEM medium containing 10% high-quality fetal bovine serum (FBS) and maintained in a cell incubator with 5% CO2 at 37° C.
# The LLC cells (tumor source) in the logarithmic growth phase were collected, and 0.1 mL of cell suspension (approximately 1×10^6 cells) was inoculated subcutaneously into the axillary region of the corresponding mice.
# as §1, §2
# On day 10 after tumor cell inoculation, the experiment was terminated, and tumors in each group of animals were excised and weighed.
# Statistical Analysis and Tumor Inhibition Rate Calculation was as follows: Data were statistically analyzed using GraphPad Prism software.
structure (smiles),measurement,setting,value
"O=P1(N(CCCl)CCCl)NCCCO1 (centres unmarked) [Cyclophosphamide (CTX), Cyclophosphamide]",Tumor Volume (mm^3) X,"[1]; LLC s.c. in C57/BL/6 mice, day 7 after tumor cell inoculation, group mean",80.40 mm^3
same,Tumor Volume (mm^3) X,"[1]; LLC s.c. in C57/BL/6 mice, day 9 after tumor cell inoculation, group mean",112.89 mm^3
same,Tumor Weight (g) X,"[1]; LLC s.c. in C57/BL/6 mice, day 10 after tumor cell inoculation, group mean",0.13 g
same,Tumor Inhibition Rate,"[1]; day 7 after tumor cell inoculation, from tumor volume vs NS",33%
same,Tumor Inhibition Rate,"[1]; day 9 after tumor cell inoculation, from tumor volume vs NS",47%
same,Tumor Inhibition Rate,"[1]; day 10 after tumor cell inoculation, from tumor weight vs NS",45%
same,Tumor Weight (g) X ± SD,"[2]; LLC s.c. in C57BL/6 mice, tumors excised at termination (day 8 in protocol table, day 10 in text)",0.03 ± 0.02 g
same,Tumor Inhibition Rate,"[2]; LLC, from tumor weight vs NS",42.80%
